Assays:
human glucagon receptor = target: T1, human glucagon receptor (Homo sapiens, UniProt P47871); test: Glucagon Binding Assay (II); details: membranes of BHK cells transfected with human glucagon receptor, 125I-glucagon, SPA; read-out: Glu Bd Assay (II) IC50
T1 construct: expressed in transfected cells; host or cells: BHK (baby hamster kidney) cells, membrane preparation
Summary of the method: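 Membranes from BHK cells transfected with the human glucagon receptor were incubated with test compound (in DMSO) in HEPES buffer pH 7.5 with Ca2+/Mg2+ and WGA beads for 4 h, then settled 8–48 h before scintillation counting. Non-specific binding was defined with 500 nM glucagon.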

human GIP receptor = target: T2, human GIP receptor (Homo sapiens, UniProt P48546); test: GIP Binding Assay; details: membranes of BHK cells transfected with human GIP receptor, 125I-GIP, SPA; read-out: GIP Bd Assay IC50
T2 construct: expressed in transfected cells; host or cells: BHK (baby hamster kidney) cells, membrane preparation
T2 sequence (P48546 22-466): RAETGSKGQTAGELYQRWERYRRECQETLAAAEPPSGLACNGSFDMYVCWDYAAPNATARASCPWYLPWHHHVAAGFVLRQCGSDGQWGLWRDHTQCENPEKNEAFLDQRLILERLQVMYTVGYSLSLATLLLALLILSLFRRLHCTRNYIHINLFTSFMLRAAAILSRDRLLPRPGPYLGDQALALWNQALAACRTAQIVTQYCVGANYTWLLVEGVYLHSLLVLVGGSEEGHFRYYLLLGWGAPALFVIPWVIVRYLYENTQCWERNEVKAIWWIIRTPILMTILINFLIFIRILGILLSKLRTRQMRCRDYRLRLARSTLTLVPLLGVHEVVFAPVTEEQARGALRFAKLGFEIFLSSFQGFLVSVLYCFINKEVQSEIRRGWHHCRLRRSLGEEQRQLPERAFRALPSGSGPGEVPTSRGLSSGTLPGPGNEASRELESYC
Summary of the method: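 Membranes from BHK cells transfected with human GIP receptor; competition binding in HEPES pH 7.5 buffer with Ca2+/Mg2+, compounds added in DMSO, WGA SPA beads. Incubated 3.5 h shaking, settled 8-48 h, then scintillation counted; non-specific binding defined with 500 nM GIP.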

T1 sequence (P47871 26-477): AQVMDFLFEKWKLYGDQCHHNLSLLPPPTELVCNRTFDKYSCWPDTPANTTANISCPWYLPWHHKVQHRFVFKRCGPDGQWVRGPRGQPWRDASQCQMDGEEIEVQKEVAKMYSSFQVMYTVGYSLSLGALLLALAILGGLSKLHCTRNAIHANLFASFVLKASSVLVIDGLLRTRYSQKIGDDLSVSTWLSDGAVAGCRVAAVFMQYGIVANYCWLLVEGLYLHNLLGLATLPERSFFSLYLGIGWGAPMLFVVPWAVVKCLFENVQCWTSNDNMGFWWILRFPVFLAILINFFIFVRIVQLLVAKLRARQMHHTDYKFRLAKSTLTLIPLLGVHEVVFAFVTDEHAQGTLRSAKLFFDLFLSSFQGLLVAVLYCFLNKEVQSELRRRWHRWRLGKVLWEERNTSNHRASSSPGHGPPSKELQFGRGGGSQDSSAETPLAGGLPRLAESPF

SMILES	IC50 (human glucagon receptor) [nM]	IC50 (human GIP receptor) [µM]
CC(=O)c1ccc(NC(=O)N(Cc2ccc(C(=O)NC[C@@H](O)C(=O)O)cc2)c2ccc(C3CCCCC3)cc2)cc1 [Example 53, (R)-3-{4-[3-(4-Acetylphenyl)-1-(4-cyclohexylphenyl)ureidomethyl]benzoylamino}-2-hydroxypropionic acid]	390	> 3
O=C(NC[C@@H](O)C(=O)O)c1ccc(CN(C(=O)Nc2cc(F)cc(F)c2)c2ccc(C3CCCCC3)cc2)cc1 [Example 55, (R)-3-{4-[1-(4-Cyclohexylphenyl)-3-(3,5-difluorophenyl)ureidomethyl]benzoylamino}-2-hydroxypropionic acid]	50	0.427
CC(C)(C)C1CCC(N(Cc2ccc(C(=O)NC[C@@H](O)C(=O)O)cc2)C(=O)Cc2ccc(OC(F)(F)F)cc2)CC1 (stereo partly drawn) [Example 56, (R)-3-[4-({(4-tert-Butylcyclohexyl)-[2-(4-trifluoromethoxyphenyl)acetyl]amino}methyl)benzoylamino]-2-hydroxypropionic acid]	228	1.37
CC(C)(C)C1CCC(N(Cc2ccc(C(=O)NC[C@@H](O)C(=O)O)cc2)C(=O)Cc2cc(F)cc(C(F)(F)F)c2)CC1 (stereo partly drawn) [Example 57, (R)-3-[4-({(4-tert-Butylcyclohexyl)-[2-(3-fluoro-5-trifluoromethylphenyl)acetyl]amino}methyl)benzoylamino]-2-hydroxypropionic acid]	439	> 3
O=C(NC[C@@H](O)C(=O)O)c1ccc(CN(CC(c2ccccc2)c2ccccc2)C(=O)Cc2cc(F)cc(C(F)(F)F)c2)cc1 [Example 58, (R)-3-[4-({(2,2-Diphenylethyl)-[2-(3-fluoro-5-trifluoromethylphenyl)acetyl]amino}methyl)benzoylamino]-2-hydroxypropionic acid]	957	> 3
O=C(NC[C@@H](O)C(=O)O)c1ccc(CN(CC(c2ccccc2)c2ccccc2)C(=O)c2csc3ccc(Cl)cc23)cc1 [Example 59, (R)-3-(4-{[(5-Chlorobenzo[b]thiophene-3-carbonyl)-(2,2-diphenylethyl)amino]methyl}benzoylamino)-2-hydroxypropionic acid]	594	> 3
O=C(NC[C@@H](O)C(=O)O)c1ccc(CN(CC(c2ccccc2)c2ccccc2)C(=O)Cc2ccc(OC(F)(F)F)cc2)cc1 [Example 60, (R)-3-[4-({(2,2-Diphenylethyl)-[2-(4-trifluoromethoxyphenyl)acetyl]amino}methyl)benzoylamino]-2-hydroxypropionic acid]	1020	> 3
CC(C)(C)C1CCC(N(Cc2ccc(C(=O)NC[C@@H](O)C(=O)O)cc2)C(=O)c2csc3ccc(Cl)cc23)CC1 (stereo partly drawn) [Example 61, (R)-3-(4-{[(4-tert-Butylcyclohexyl)-(5-chlorobenzo[b]thiophene-3-carbonyl)amino]methyl}-benzoylamino)-2-hydroxypropionic acid]	754	> 3
O=C(NC[C@@H](O)C(=O)O)c1ccc(CN(CC(c2ccccc2)c2ccccc2)C(=O)c2cc3cc(OC(F)(F)F)ccc3[nH]2)cc1 [Example 62, (R)-3-(4-{[(2,2-Diphenylethyl)-(5-trifluoromethoxy-1H-indole-2-carbonyl)amino]methyl}-benzoylamino)-2-hydroxypropionic acid]	757	> 3
O=C(NC[C@@H](O)C(=O)O)c1ccc(CN(C(=O)Cc2ccc(OC(F)(F)F)cc2)c2ccc(C3CCCCC3)cc2)cc1 [Example 63, (R)-3-[4-({(4-Cyclohexylphenyl)-[(4-trifluoromethoxyphenyl)acetyl]amino}methyl)benzoylamino]-2-hydroxypropionic acid]	336	> 3
O=C(NC[C@@H](O)C(=O)O)c1ccc(CN(C(=O)Cc2cccc(OC(F)(F)F)c2)c2ccc(C3CCCCC3)cc2)cc1 [Example 64, (R)-3-[4-({(4-Cyclohexylphenyl)-[(3-trifluoromethoxyphenyl)acetyl]amino}methyl)benzoylamino]-2-hydroxypropionic acid]	514	> 3
